These results are taken from patent US12492208B2, “Crystal of pyrimidine compound” (TAIHO PHARMACEUTICAL CO., LTD., priority 2020, dated 2025).

Series [1] in a line: Dynamic vapor sorption (DVS) test. It is filed as physicochemical. The following applies: for Weight change rate, Adsorption / Weight change rate, Desorption: 25° C. On the procedure: Dynamic vapor sorption tests were conducted using a type II crystal of compound (I) with1 equivalent of fumaric acid, a free-form type II crystal of the same, a free-form type I crystal of the same, a type V crystal of the same with 1 equivalent of fumaric acid, and a crystal of the same with 1 equivalent of L-tartaric acid obtained in the Examples and Reference Examples.
The dynamic vapor sorption test was conducted for measurement according to the following conditions.
Approximately 10 mg of each sample was packed in a dedicated quartz holder, and the weight of the sample at each humidity was continuously measured and recorded under the following conditions.

A further series in a line: Solid stability test. It is filed as physicochemical. The method, then:
The free-form type II crystals of the compound (I) and type II crystals thereof with 1 equivalent of fumaric acid obtained in the Examples and Comparative Examples were evaluated for solid stability after storage for 4 weeks. • Storage condition: 60° C. (closed system) • Storage period: 4 weeks • Stored amount: Approximately 30 mg • Storage container: Glass bottle
Approximately 1 mg of a sample was weighed, dissolved in approximately 1 mL of a liquid mixture of water/acetonitrile (1:1), and 5 μL of this solution was accurately measured. Changes in the amount of related substances (the amount of substances detected other compound (I)) were analyzed by HPLC by the following method. Hplc Analysis Method (Stability Test)
The amount of related substances in the sample solution was measured by HPLC analysis. Handling of the apparatuses, including data processing, was in accordance with the methods and procedures instructed for each apparatus. • Column: XSelect CSH C18 (4.6×150 mm, 3.5 μm) manufactured by Waters • UV detection: 246 nm • Column temperature: 40° C. • Flow rate: 1.0 mL/min • Sample cooler: 5° C. • Sample concentration: 1 mg/mL • Mobile phase A: Liquid mixture of 5 mmol/L ammonium formate buffer (pH 6.5)/acetonitrile (9:1) • Mobile phase B: Acetonitrile

A short description of series [2]: Blood concentration measurement test. It counts as in vivo, female rats (Crl:CD (SD)). The following applies: rat, oral; for AUC0-6hr / Cmax / Tmax: listed as Type II crystal of compound (I) with 1 equivalent of fumaric acid. On the procedure:
Blood concentration measurement tests were conducted for the type I crystal of compound (I), the type II crystal of compound (I), and the type II crystal of compound (I) with 1 equivalent of fumarate obtained in the Examples. Specifically, 0.5% HPMC containing 0.1N hydrochloric acid was used for the type I crystal of compound (I) and 0.5% HPMC was used for the type II crystal of compound (I) and the type II crystal of compound (I) with 1 equivalent of fumaric acid to convert each crystal into the compound (I) (free-form) in terms of molecular weight so as to prepare suspensions of 100 mg/10 mL and 300 mg/10 mL. These administration solutions were orally administered to female rats (Crl:CD (SD), Charles River Laboratories Japan, Inc.) kept under feeding conditions at a volume of 10 mL/kg body weight using an oral administration sonde. After administration, the rats were returned to the rat cage and their conditions were checked. Water and feeding were freely available in the cage. At 0.5, 1, 2, 4, and 6 hours after administration, the rats were anesthetized with isoflurane, and approximately 80 μL of blood was collected from the jugular vein using a heparin-coated syringe and an injection needle (25 G).
The collected blood was ice-cooled and plasma was separated by centrifugation. After the blood collection was completed, the rats were returned to the rat cage and the state after awakening of anesthesia was checked. After the final blood collection, the depth of isoflurane anesthesia was checked. Then, the limbs were fixed in a supine position with a small animal experiment holding apparatus, and the abdomen was opened such that each rat was euthanized by exsanguination through an incision in the abdominal aorta and vena cava.
AUC0-6 hr (Area under the blood concentration-time curve for 0 to 6 hours after administration calculated by the trapezoidal method), Cmax (maximum blood concentration), and Tmax (time to reach maximum blood concentration) were calculated from the concentration of the compound (I) in each plasma measured by the MRM method using LC/MS/MS and quantified from the calibration curve using Phoenix WinNonlin (v6.4.0,Certara USA, Inc.).

A further series has as its system brain metastatic cancer. The following applies: clinical tests; cited from earlier work.
For series [3] the following is noted: non-clinical tests; substrates of p-gp or Bcrp; cited from earlier work.
Setting [4] is: 60° C. (closed system), 4 weeks.
Setting [5] is: 60° C. (closed system), 4 weeks, listed as Type II crystal with 1 equivalent of fumaric acid.
Where [6] appears, read: before storage, listed as Type II crystal with 1 equivalent of fumaric acid.

With `C=CC(=O)N1C[C@H](n2c(C#CC3CC3)c(C(=O)N[C@H](C)c3ccccc3)c3c(N)ncnc32)C[C@@H]1C` [type II crystal of compound (I) with 1 equivalent of fumaric] [7-((3R,5S)-1-acryloyl-5-methylpyrrolidin-3-yl)-4-amino-6-(cyclopropylethynyl)-N—((R)-1-phenylethyl)-7H-pyrrolo[2,3-d]pyrimidine-5-carboxamide], in series [1] (from mass increase under 95% relative humidity), the hygroscopicity determination result is reported as “almost non-hygroscopic”. Further, in series [1] (relative humidity 5%), the “Weight change rate, Adsorption” value is given as 0.01% and the “Weight change rate, Desorption” value came to 0.04%. In addition, in series [1] (relative humidity 20%), the “Weight change rate, Adsorption” value was determined as 0.11% and the “Weight change rate, Desorption” value is given as 0.13%. Besides, in series [1] (relative humidity 40%), the “Weight change rate, Adsorption” value is given as 0.18% and the “Weight change rate, Desorption” value was found to be 0.20%. Further, in series [1] (relative humidity 60%), the “Weight change rate, Adsorption” value was 0.27% and the “Weight change rate, Desorption” value worked out at 0.30%. In addition, in series [1] (relative humidity 80%), the “Weight change rate, Adsorption” value turned out to be 0.34% and the “Weight change rate, Desorption” value is 0.34%. Besides, in series [1] (relative humidity 95%), the “Weight change rate, Adsorption” value is 0.38% and the “Weight change rate, Desorption” value was 0.38%. For the same molecule, in “Solid stability test” (setting [4]), the “change in the powder X-ray diffraction pattern” value is reported as “no change” and the “increase in related substances” value is given as “almost no increase”. Besides, in the series “Solid stability test” (setting [5]), the “Amount of related substances after storage” value is 0.15% and the “Chemical purity after storage” value is on record as 99.85%. Also, in “Solid stability test” (setting [6]), the “Amount of related substances before storage” value was 0.15% and the “Chemical purity before storage” value came out at 99.85%. In addition, in series [2], the “AUC 0-6 hr increase when the dose was increased from 100 mg/kg to 300 mg/kg” value amounted to 1.9 times and the “Cmax increase when the dose was increased from 100 mg/kg to 300 mg/kg” value is 1.9 times. Further, in series [2] (100 mg/kg), the AUC0-6hr was 6.14 µM·h; the Cmax – broadly, the peak of the concentration-time curve – amounted to 2.74 µM; the Tmax (usually the time at which the peak concentration occurs) came to 75 min. In series [2] (300 mg/kg), the “AUC0-6 hr relative to the value of the type I crystal of compound (I) with the acid” value was 2.4 times, the “AUC0-6 hr relative to the value of the type II crystal of compound (I)” value was determined as 2.4 times, the “Cmax relative to the value of the type I crystal of compound (I) with the acid” value was determined as 1.7 times and the “Cmax relative to the value of the type II crystal of compound (I)” value stood at 1.4 times. Besides, in series [2] (300 mg/kg), the AUC0-6hr came to 11.9 µM·h, the highest concentration (Cmax) worked out at 5.34 µM and the Tmax was 30 min.

Regarding `CS(=O)(=O)CCNCc1ccc(-c2ccc3ncnc(Nc4ccc(OCc5cccc(F)c5)c(Cl)c4)c3c2)o1` [Lapatinib], the “effects against brain metastatic cancer” value in the series on brain metastatic cancer is reported as “sufficient effects of these agents could not be obtained”. Further, the brain penetration properties result in series [3] is listed as “limited”.

As to `CCOc1cc2ncc(C#N)c(Nc3ccc(OCc4ccccn4)c(Cl)c3)c2cc1NC(=O)/C=C/CN(C)C` [Neratinib], the “effects against brain metastatic cancer” value in the series with brain metastatic cancer was “sufficient effects of these agents could not be obtained”. Besides, in series [3], the brain penetration properties result is on record as “limited”.
